Each structure is given as a SMILES string. pIC50: −log10 of the molar value.

The target of the test is T1, Tyrosine-protein kinase JAK3 (Homo sapiens, UniProt P52333).
T1 sequence (P52333 whole entry): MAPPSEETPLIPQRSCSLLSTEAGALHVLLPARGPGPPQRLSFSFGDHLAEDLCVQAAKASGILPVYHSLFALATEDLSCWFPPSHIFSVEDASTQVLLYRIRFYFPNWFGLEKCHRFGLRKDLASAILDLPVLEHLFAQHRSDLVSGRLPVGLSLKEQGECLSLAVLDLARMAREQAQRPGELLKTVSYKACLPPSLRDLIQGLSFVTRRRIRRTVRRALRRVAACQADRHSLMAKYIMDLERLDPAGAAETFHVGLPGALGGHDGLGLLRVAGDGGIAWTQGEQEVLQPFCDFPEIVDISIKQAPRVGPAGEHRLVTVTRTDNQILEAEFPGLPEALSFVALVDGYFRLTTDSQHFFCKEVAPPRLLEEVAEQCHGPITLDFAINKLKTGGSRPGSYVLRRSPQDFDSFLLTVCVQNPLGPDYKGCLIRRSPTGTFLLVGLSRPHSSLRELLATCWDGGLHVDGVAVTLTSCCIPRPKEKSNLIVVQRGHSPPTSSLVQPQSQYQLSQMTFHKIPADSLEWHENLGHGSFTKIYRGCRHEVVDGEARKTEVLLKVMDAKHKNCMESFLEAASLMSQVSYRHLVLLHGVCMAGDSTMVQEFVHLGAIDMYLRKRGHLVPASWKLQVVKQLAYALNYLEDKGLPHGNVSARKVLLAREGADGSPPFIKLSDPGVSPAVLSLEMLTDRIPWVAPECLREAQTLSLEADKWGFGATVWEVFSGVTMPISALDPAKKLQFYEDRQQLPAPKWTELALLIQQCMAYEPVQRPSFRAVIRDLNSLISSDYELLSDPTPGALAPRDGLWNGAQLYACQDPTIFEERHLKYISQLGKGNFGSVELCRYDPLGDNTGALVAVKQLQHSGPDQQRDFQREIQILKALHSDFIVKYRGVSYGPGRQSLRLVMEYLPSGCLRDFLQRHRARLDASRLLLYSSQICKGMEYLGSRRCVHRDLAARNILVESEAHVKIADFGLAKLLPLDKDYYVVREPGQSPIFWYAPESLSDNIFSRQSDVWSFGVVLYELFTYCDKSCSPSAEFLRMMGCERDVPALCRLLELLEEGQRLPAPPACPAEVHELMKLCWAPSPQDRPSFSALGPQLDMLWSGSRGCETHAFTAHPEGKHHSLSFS
The test is described as follows: Inhibition of JAK3.
As usually defined, the pIC50 is the IC50 on a negative log10 scale, so that one unit is a factor of ten. With `CN1CCN(c2ccc(Nc3ncc4[nH]nc(-c5ccccc5)c4n3)cc2)CC1`, the pIC50 is 7.01.

Regarding `Cc1cc(C(=O)Nc2ccc3[nH]ncc3c2)nn1-c1cccc(C(F)(F)F)c1`, the pIC50 was 5.58.

`Oc1c2ccccc2c2c3c(cccc13)N=N2` [SP-600125] gave a negative-log IC50 (pIC50) of 6.02.
